Measurements: US5116829A, “Steroid compounds” (Kao Corporation, priority 1990, dated 1992)
Read-outs that look alike come from different tables or passages of the source.

Legend:
edema of rat auricle = experiment: Anti-inflammatory activity (1): croton oil-induced auricle edema; type: in vivo, Wistar male rats; conditions: 10^-3 M, 800 μl/auricle, 15 seconds, weighed after 6 hours, read-out: Edema inhibitory rate (%)
Protocol: Test Method of Anti-inflammatory Activity (1) […] Wistar male rats, age 5 weeks, each group consisting of 5, were served for the test. The test samples and an inflammation-inducingbase material (control) were infiltrated into circular […]) fixed onto specially prepared tweezers and the right auricles of the animals were put between the tweezers to apply the samples (800 μl/auricle) for 15 seconds at a constant pressure of 500 gw. After 6 hours, the both auricles were punched (.phi. 9 mm) and weighed. An edema inhibitory rate determined by the following equation was taken as an index of the anti-inflammatory activity of the steroid samples. Edema inhibitory rate (%)=100-Y/Z×100 wherein Y is the weight difference (mg) of the right auricle to which the sample drug was applied and the untreated left auricle, and Z is the weight difference (mg) of the right auricle of the rat to which the inflammation-inducing base material was applied and the untreated left auricle.

[1] = Acute toxicity (oral administration); design: species or system ICR mice (male); conditions: mouse, in vivo, 14 days after administration, read-out: Viability (%)
Protocol: Acute toxicity (oral administration) of the compound of the present invention was evaluated according to the following method. […]

granuloma = experiment: Anti-inflammatory activity (2): granuloma around embedded filter paper; type: in vivo, Wistar male rats; conditions: 10^-2 M, 50 μl/paper, after 6 days; for inhibition at 10000 µM: Rattus norvegicus, 144 h, read-out: Granulating Inhibitory Rate (%)
Description: Test Method of Anti-inflammatory Activity (2) Wistar male rats, age 5 weeks, each group consisting of 5-8 rats, were served for the test. […] The paper was embedded into the right back of the rats. Into the left back was embedded an untreated antibiotic test filter paper. After 6 days, the animals were sacrificed by bleeding and the backs were incised to extract each granuloma formed around the filter. The granuloma was dried and weighed. To the right backs of the control group antibiotic test filter papers infiltrated with 50 μl/paper of ethanol and dried were embedded.

[2] = tested on: eosinophiles infiltration; experiment: Anti-allergic activity: FMLP-induced eosinophiles infiltration in trachea; type: in vivo, guinea pigs (male); conditions: positive control; after 4 hours (so in the source)
Protocol: Test Method of Anti-allergic Activity
To tracheas around the neck of guinea pigs (male; weight 200-300 gm) exposed under anesthesia with Nembutal (0.05 ml/animal, i.p.) were injected FMLP (10^-4 M), which is an inflammation-inducing compound, dissolved in 1% dimethylsulfoxide solution in physiological saline, individually o together with the test compound with a 26 guage needle. For the negative control, only dimethylsulfoxide was injected, and for the positive control betamethasone was administered. […] Eosinophiles infiltrated into the upper, middle, and lower parts of the trachea were counted by microscope. Numbers of eosinophiles found in tracheas to which the test compound was injected were compared with those to which FMLP was independently injected.

thymus = experiment: Systemic side effects: thymus weight; type: in vivo, ddY male mice; conditions: 2 mM in peanut oil, s.c., two times at 24 hour interval; Means ± S.E.
Protocol: Systemic side effects of the compound of the present invention were evaluated according to the following method.
Suspensions of the test compounds (2 mM) in peanut oil were subcutaneously injected into the back of ddY male mice (weight: about 30 gm), 10 mice consisting of a test group, two times, once a day at a 24 hour interval. After 24 hours from the last injection, the mice were sacrificed to extract the thymus and to weigh its weight. For the control group only peanut oil was administered. The results are shown in […]

Row | Structure (SMILES) | inhibition at 1000 µM (edema of rat auricle) | survival at 336 h ([1]; dose 1.7 (mg/kg)) | survival at 336 h ([1]; dose 3.3 (mg/kg)) | survival at 336 h ([1]; dose 5 (mg/kg)) | Dry weight of ganuloma (granuloma) | inhibition at 10000 µM (granuloma) | eosinophiles infiltration inhibitory effect [2] | Thymus weight/10 gm body weight (thymus)
1 | CCCCC(=O)O[C@]1(C(=O)CO)[C@@H](C)C[C@H]2[C@@H]3CCC4=CC(=O)C=C[C@]4(C)[C@@]3(F)[C@@H](O)C[C@@]21C [Betamethasone 17-valerate, betamethasone 17-valerate, reference compound] | 34% | 100% | 100% | 50% | 15.0 mg | 26.6% | – | –
2 | C[C@H]1C[C@H]2[C@@H]3CCC4=CC(=O)C=C[C@]4(C)[C@@]3(F)[C@@H](O)C[C@]2(C)[C@@]1(O)C(=O)CO [Betamethasone, betamethasone] | – | – | – | – | – | – | only a small effect | 15.4 ± 1.4 mg
3 | CSCC[C@H](NC=O)C(=O)SCC(=O)[C@@]1(O)[C@@H](C)C[C@H]2[C@@H]3CCC4=CC(=O)C=C[C@]4(C)[C@@]3(F)[C@@H](O)C[C@@]21C [Compound No. 1, 9-Fluoro-21-[2-(formylamino)-4-methylthio-1-oxobutylthio]-11β,17-dihydroxy-16β-methylpregna-1,4-diene-3,20-dione] | 44% | 100% | 100% | 100% | 10.7 mg | 47.7% | – | 23.4 ± 0.3 mg
4 | CSCC[C@H](NC=O)C(=O)SCC(=O)[C@@]12OC(C)(C)O[C@@H]1C[C@H]1[C@@H]3CCC4=CC(=O)C=C[C@]4(C)[C@@]3(F)[C@@H](O)C[C@@]12C [Compound No. 3, 9-Fluoro-21-[2-(formylamino)-4-methylthio-1-oxobutylthio]-11β-hydroxy-16α,17α-isopropylidenedioxypregna-1,4-diene-3,20-dione] | 74% | – | – | – | – | – | – | –
5 | CSCCC(NC=O)C(=O)SCC(=O)[C@@]1(O)[C@H](C)C[C@H]2[C@@H]3CC(F)C4=CC(=O)C=C[C@]4(C)[C@@]3(F)[C@H](O)C[C@@]21C (stereo partly drawn) [Compound No. 5, 6,9-Difluoro-21-[2-(formylamino)-4-methylthio-1-oxobutylthio]-11α,17-dihydroxy-16α-methylpregna-1,4-diene-3,20-dione] | 74% | – | – | – | – | – | – | –
6 | CCCCC(=O)O[C@]1(C(=O)CSC(=O)[C@H](CCSC)NC=O)[C@@H](C)C[C@H]2[C@@H]3CCC4=CC(=O)C=C[C@]4(C)[C@@]3(F)[C@@H](O)C[C@@]21C [Compound No. 6, 9-Fluoro-21-[2-(formylamino)-4-methylthio-1-oxobutylthio]-11β-hydroxy-16β-methyl-17-(1-oxopentyloxy)-pregna-1,4-diene-3,20-dione] | – | – | – | – | 7.4 mg | 63.9% | – | –
7 | C[C@]12CCC(=O)C=C1CC[C@@H]1[C@@H]2[C@@H](O)C[C@@]2(C)[C@H]1CC[C@]2(O)C(=O)CO [Hydrocortisone, hydrocortisone, reference compound] | – | – | – | – | – | – | – | 20.8 ± 2.1 mg
